Experimental data reported in US20060035844A1, “Preventive or remedy for diseases caused by hyperglycemia” (priority 2002, published 2006).

Legend:
[1] = target: T1, rat SGLT1 (Rattus norvegicus, UniProt P53790); assay: Assay for inhibitory effects on rat SGLT1 activity (uptake of methyl-α-D-glucopyranoside in CrS1 cells); type: cell-based; conditions: CHO-K1 cells stably expressing rat SGLT1 (CrS1), 1 mM α-MG, 37° C., 1 hour; read-out: IC50 value, inhibition of uptake of methyl-α-D-glucopyranoside
T1 construct: expressed in transfected cells
T1 sequence (P53790 1-665): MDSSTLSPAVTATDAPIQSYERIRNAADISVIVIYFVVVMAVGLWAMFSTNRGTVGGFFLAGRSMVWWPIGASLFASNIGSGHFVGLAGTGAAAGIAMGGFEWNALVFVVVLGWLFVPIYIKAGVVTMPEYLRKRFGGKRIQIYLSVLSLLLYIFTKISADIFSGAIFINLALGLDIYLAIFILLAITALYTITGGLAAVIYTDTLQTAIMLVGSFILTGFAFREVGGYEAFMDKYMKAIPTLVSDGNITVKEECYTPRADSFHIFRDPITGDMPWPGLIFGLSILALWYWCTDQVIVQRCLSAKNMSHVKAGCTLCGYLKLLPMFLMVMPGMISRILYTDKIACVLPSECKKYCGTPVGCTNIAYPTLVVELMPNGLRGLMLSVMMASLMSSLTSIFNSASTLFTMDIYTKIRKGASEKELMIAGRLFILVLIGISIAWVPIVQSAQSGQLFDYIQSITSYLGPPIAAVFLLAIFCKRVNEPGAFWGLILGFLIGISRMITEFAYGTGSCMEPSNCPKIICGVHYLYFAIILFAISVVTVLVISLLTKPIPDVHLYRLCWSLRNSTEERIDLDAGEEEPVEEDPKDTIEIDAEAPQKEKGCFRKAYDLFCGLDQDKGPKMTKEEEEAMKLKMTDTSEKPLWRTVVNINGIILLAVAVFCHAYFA
Protocol: A test compound was dissolved in dimethyl sulfoxide, and then appropriately diluted with distilled water. The test compound solution was added to the uptake buffer containing 1 mM α-MG, and designated as a measurement buffer. For the control group, the measurement buffer without any test compound was prepared. […] After repeating the same treatment, the pre-treatment buffer was removed. To each well was added 75 μL of the measurement buffer or the basal uptake buffer was added and incubated at 37° C. for 1 hour. After removing the measurement buffer, cells were washed twice with 180 μL per well of the washing buffer (the basal uptake buffer containing 10 mM non-labeled α-MG). The cells were solubilized by 75 μL per well of 0.2 mol/L sodium hydroxide. The cell lysates were transferred into PicoPlates (Packard), and then added 150 μL of MicroScint-40 (Packard) and mixed. Radioactivity was measured by means of micro-scintillation counter TopCount (Packard).

[2] = test system: male Zucker fa/fa rats; assay: Effects after mixed-carbohydrate loading with or without sucrose (plasma glucose AUC 0-3 h); type: in vivo, rat; conditions: Zucker fatty fa/fa rats, oral; Example 1 0.5 mg/kg, Example 2 0.3 mg/kg, acarbose 5 mg/kg, miglitol 5 mg/kg, phlorizin 100 mg/kg; 1.6 g glucose/kg load
From the text: Next, in order to investigate whether effects caused by fructose ingestion are present, the present inventors have performed the following test using Zucker fatty fa/fa rats, model animals of type-2 diabetes. […] In the fructose-containing diet group, mixed carbohydrate (starch: sucrose: lactose=6:3:1), which corresponds approximately to carbohydrates in regular diets, was loaded. (e.g., see the following Reference 35). On the other hand, in the fructose-free diet group, mixed carbohydrate substituted the corresponding amount of starch for the amount of glucose contained within sucrose, was loaded, because sucrose is a disaccharide and is digested to glucose and fructose in the gastrointestinal tract. Then, comparison study of each diet was performed.
The FIG. 1 is a graph showing hypoglycemic effects of each drug caused by fructose ingestion.
Effects of SGLT1 Inhibitors, an SGLT Inhibitor and α-glucosidase Inhibitors After Mixed-Carbohydrate Containing Sucrose Loading
Immediately after the compound administration, mixed-carbohydrate with sucrose (starch:sucrose:lactose=6:3:1) or without sucrose (starch:lactose=7.5:1) was loaded at a dose of 1.6 g glucose/kg. The blood was collected immediately before and after the administration with the time course (0, 0.5, 1, 2, 3 hours). The plasma was collected to quantify the plasma glucose concentration. The area under the curve of plasma glucose concentration from 0 to 3 hours was calculated by the trapezoidal method. Statistical analysis was T test between existence and nonexistence of sucrose in mixed-carbohydrate solution on each compound.

[3] = test system: male Wistar rats; assay: Effects of an SGLT1 inhibitor on absorption of fructose (fructose tolerance test, residual fructose in the gastrointestinal tract); type: in vivo, rat
Protocol: Effects of an SGLT1 Inhibitor on Absorption of Fructose
Immediately after the administration, 0.2 g/kg of fructose was loaded. After 30 minutes, rats were sacrificed with exsanguination under ether anesthesia and then the contents of stomach and small intestine were collected with 10 mL ice-cold saline. Fructose concentration was measured by fructose assay kit (D-glucose/D-Fructose; Roche diagnostics) and calculated residual fructose (% of dose) in the gastrointestinal tract. Statistical analysis between control and treated groups are calculated using T test.

Compound | IC50 [1] | Reduction of plasma glucose concentration after sucrose-containing diet compared with sucrose-free diet (in words) [2] | Residual fructose (% of dose) in the gastrointestinal tract ([3]; 0.3 mg/kg oral, 0.2 g/kg fructose load, after 30 minutes, stomach and small intestine contents, control 11.8 ± 2.1) | Inhibitory effect on absorbing fructose (in words) ([3]; fructose tolerance test, residual fructose in the gastrointestinal tract)
Cc1cc(O)cc(O[C@@H]2O[C@H](CO)[C@@H](O)[C@H](O)[C@H]2O)c1Cc1ccc(NC(=O)NCc2cccnc2)cc1 [Example 1, 5-Hydroxy-3-methyl-2-{4-[3-(3-pyridylmethyl)ureido]benzyl}-phenyl β-D-glucopyranoside] | 139 nM | significantly reduced plasma glucose concentration | – | –
OCCN1C[C@H](O)[C@@H](O)[C@H](O)[C@H]1CO [miglitol, reference compound] | – | did not reduce plasma glucose concentration | – | –
O=C(CCc1ccc(O)cc1)c1c(O)cc(O)cc1O[C@@H]1O[C@H](CO)[C@@H](O)[C@H](O)[C@H]1O [Phlorizin, reference compound] | – | did not reduce plasma glucose concentration | – | –
Cc1cc(OCCNC(=N)N)ccc1Cc1c(O[C@@H]2O[C@H](CO)[C@@H](O)[C@H](O)[C@H]2O)n[nH]c1C(C)C [Example 2, 3-(β-D-Glucopyranosyloxy)-4-{[4-(2-guanidinoethoxy)-2-methylphenyl]methyl}-5-isopropyl-1H-pyrazole] | 38.1 nM | significantly reduced plasma glucose concentration | 12.2 ± 2.6% | substantially show no inhibitory effect on absorbing fructose
